Experimental data reported in patent publication US8927717B1, “Thiochromeno[2,3-c]quinolin-12-one derivatives, preparation method and application thereof” (National Defense Medical Center, priority 2014, dated 2015).

Tests used:
[1] = target: T1, TOP II (Topoisomerase II) (Homo sapiens, UniProt P11388); assay: TOP II-catalyzed relaxation of plasmid DNA assay; format: biochemical
T1 construct: purchased TopoGEN TG-2000H-1
Method: We also performed TOP II-catalyzed relaxation of plasmid DNA assays (FIG. 5-7) to evaluate if compounds could inhibit TOP II. […] The IC50 value of compounds 7, N7, N8, N14, N15, N18, and N19 were about 10, 10, 1, 10, 5, 1, and 1 μM, respectively (detect by TopoGEN TG2005H, TG-2000H-1).

[2] = test system: HOP-62; format: cell-based; conditions: Non-small cell lung cancer; 10^−5 molar; 48 hours; SRB
[3] = test system: UACC-62; format: cell-based; conditions: Melanoma; 10^−5 molar; 48 hours; SRB
[4] = test system: HCC-2998; format: cell-based; conditions: Colon cancer; 10^−5 molar; 48 hours; SRB
[5] = test system: TK-10; format: cell-based; conditions: Renal cancer; 10^−5 molar; 48 hours; SRB
[6] = test system: MDA-MB-486; format: cell-based; conditions: Breast cancer; 10^−5 molar; 48 hours; SRB
[7] = test system: HL-60(TB); format: cell-based; conditions: Leukemia; 10^−5 molar; 48 hours; SRB
[8] = test system: IGROV1; format: cell-based; conditions: Ovarian cancer; 10^−5 molar; 48 hours; SRB
[9] = test system: SNB-19; format: cell-based; conditions: CNS cancer; 10^−5 molar; 48 hours; SRB
[10] = test system: HCT-15; format: cell-based; conditions: Colon cancer; 10^−5 molar; 48 hours; SRB
[11] = test system: SR; format: cell-based; conditions: Leukemia; 10^−5 molar; 48 hours; SRB
[12] = test system: CAKI-1; format: cell-based; conditions: Renal cancer; 10^−5 molar; 48 hours; SRB
[13] = test system: MDA-MB-231/ATCC; format: cell-based; conditions: Breast cancer; 10^−5 molar; 48 hours; SRB
[14] = test system: T-47D; format: cell-based; conditions: Breast cancer; 10^−5 molar; 48 hours; SRB
[15] = test system: 60 cancer cell lines; assay: NCI 60-cell screen, SRB, whole panel (mean, delta, range); format: cell-based; conditions: 10^−5 molar, 48 hours, SRB
[16] = test system: OVCAR-3; format: cell-based; conditions: Ovarian cancer; 10^−5 molar; 48 hours; SRB
[17] = test system: LOX IMVI; format: cell-based; conditions: Melanoma; 10^−5 molar; 48 hours; SRB
[18] = test system: SK-OV-3; format: cell-based; conditions: Ovarian cancer; 10^−5 molar; 48 hours; SRB
[19] = test system: OVCAR-8; format: cell-based; conditions: Ovarian cancer; 10^−5 molar; 48 hours; SRB
[20] = test system: RPMI-8226; format: cell-based; conditions: Leukemia; 10^−5 molar; 48 hours; SRB
[21] = test system: SF-268; format: cell-based; conditions: CNS cancer; 10^−5 molar; 48 hours; SRB
[22] = test system: CCRF-CEM; format: cell-based; conditions: Leukemia; 10^−5 molar; 48 hours; SRB
[23] = test system: NCI-H23; format: cell-based; conditions: Non-small cell lung cancer; 10^−5 molar; 48 hours; SRB
[24] = test system: KM12; assay: cells; format: cell-based; conditions: Colon cancer; 10^−5 molar; 48 hours; SRB
[25] = test system: NCI-H460; format: cell-based; conditions: Non-small cell lung cancer; 10^−5 molar; 48 hours; SRB
[26] = test system: SF-295; format: cell-based; conditions: CNS cancer; 10^−5 molar; 48 hours; SRB
[27] = test system: K-562; format: cell-based; conditions: Leukemia; 10^−5 molar; 48 hours; SRB
[28] = test system: SF-539; format: cell-based; conditions: CNS cancer; 10^−5 molar; 48 hours; SRB
[29] = test system: U251; format: cell-based; conditions: CNS cancer; 10^−5 molar; 48 hours; SRB
[30] = test system: SW-620; format: cell-based; conditions: Colon cancer; 10^−5 molar; 48 hours; SRB
[31] = test system: HCT-116; format: cell-based; conditions: Colon cancer; 10^−5 molar; 48 hours; SRB
[32] = test system: HT29; format: cell-based; conditions: Colon cancer; 10^−5 molar; 48 hours; SRB
[33] = test system: MCF7; format: cell-based; conditions: Breast cancer; 10^−5 molar; 48 hours; SRB
[34] = test system: NCI-H522; format: cell-based; conditions: Non-small cell lung cancer; 10^−5 molar; 48 hours; SRB
[35] = test system: NCI/ADR-RES; format: cell-based; conditions: Ovarian cancer; 10^−5 molar; 48 hours; SRB
[36] = test system: ACHN; format: cell-based; conditions: Renal cancer; 10^−5 molar; 48 hours; SRB
[37] = test system: COLO 205; format: cell-based; conditions: Colon cancer; 10^−5 molar; 48 hours; SRB
[38] = test system: SK-MEL-28; format: cell-based; conditions: Melanoma; 10^−5 molar; 48 hours; SRB
[39] = test system: SK-MEL-2; format: cell-based; conditions: Melanoma; 10^−5 molar; 48 hours; SRB
[40] = test system: SN12C; format: cell-based; conditions: Renal cancer; 10^−5 molar; 48 hours; SRB
[41] = test system: OVCAR-4; format: cell-based; conditions: Ovarian cancer; 10^−5 molar; 48 hours; SRB
[42] = test system: BT-549; format: cell-based; conditions: Breast cancer; 10^−5 molar; 48 hours; SRB
[43] = test system: 786-0; format: cell-based; conditions: Renal cancer; 10^−5 molar; 48 hours; SRB
[44] = test system: MALME-3M; format: cell-based; conditions: Melanoma; 10^−5 molar; 48 hours; SRB
[45] = test system: RXF 393; format: cell-based; conditions: Renal cancer; 10^−5 molar; 48 hours; SRB
[46] = test system: MDA-MB-435; format: cell-based; conditions: Melanoma; 10^−5 molar; 48 hours; SRB
[47] = test system: OVCAR-5; format: cell-based; conditions: Ovarian cancer; 10^−5 molar; 48 hours; SRB
[48] = test system: A549/ATCC; format: cell-based; conditions: Non-small cell lung cancer; 10^−5 molar; 48 hours; SRB
[49] = test system: HS 578T; format: cell-based; conditions: Breast cancer; 10^−5 molar; 48 hours; SRB
[50] = test system: HOP-92; format: cell-based; conditions: Non-small cell lung cancer; 10^−5 molar; 48 hours; SRB
[51] = test system: DU-145; format: cell-based; conditions: Prostate cancer; 10^−5 molar; 48 hours; SRB
[52] = test system: NCI-H226; format: cell-based; conditions: Non-small cell lung cancer; 10^−5 molar; 48 hours; SRB
[53] = test system: UO-31; format: cell-based; conditions: Renal cancer; 10^−5 molar; 48 hours; SRB
[54] = test system: PC-3; format: cell-based; conditions: Prostate cancer; 10^−5 molar; 48 hours; SRB
[55] = test system: SNB-75; format: cell-based; conditions: CNS cancer; 10^−5 molar; 48 hours; SRB
[56] = test system: MOLT-4; format: cell-based; conditions: Leukemia; 10^−5 molar; 48 hours; SRB
[57] = test system: UACC-257; format: cell-based; conditions: Melanoma; 10^−5 molar; 48 hours; SRB
[58] = test system: SK-MEL-5; format: cell-based; conditions: Melanoma; 10^−5 molar; 48 hours; SRB
[59] = test system: A498; format: cell-based; conditions: Renal cancer; 10^−5 molar; 48 hours; SRB
[60] = test system: M14; format: cell-based; conditions: Melanoma; 10^−5 molar; 48 hours; SRB

T1 sequence (P11388 whole entry): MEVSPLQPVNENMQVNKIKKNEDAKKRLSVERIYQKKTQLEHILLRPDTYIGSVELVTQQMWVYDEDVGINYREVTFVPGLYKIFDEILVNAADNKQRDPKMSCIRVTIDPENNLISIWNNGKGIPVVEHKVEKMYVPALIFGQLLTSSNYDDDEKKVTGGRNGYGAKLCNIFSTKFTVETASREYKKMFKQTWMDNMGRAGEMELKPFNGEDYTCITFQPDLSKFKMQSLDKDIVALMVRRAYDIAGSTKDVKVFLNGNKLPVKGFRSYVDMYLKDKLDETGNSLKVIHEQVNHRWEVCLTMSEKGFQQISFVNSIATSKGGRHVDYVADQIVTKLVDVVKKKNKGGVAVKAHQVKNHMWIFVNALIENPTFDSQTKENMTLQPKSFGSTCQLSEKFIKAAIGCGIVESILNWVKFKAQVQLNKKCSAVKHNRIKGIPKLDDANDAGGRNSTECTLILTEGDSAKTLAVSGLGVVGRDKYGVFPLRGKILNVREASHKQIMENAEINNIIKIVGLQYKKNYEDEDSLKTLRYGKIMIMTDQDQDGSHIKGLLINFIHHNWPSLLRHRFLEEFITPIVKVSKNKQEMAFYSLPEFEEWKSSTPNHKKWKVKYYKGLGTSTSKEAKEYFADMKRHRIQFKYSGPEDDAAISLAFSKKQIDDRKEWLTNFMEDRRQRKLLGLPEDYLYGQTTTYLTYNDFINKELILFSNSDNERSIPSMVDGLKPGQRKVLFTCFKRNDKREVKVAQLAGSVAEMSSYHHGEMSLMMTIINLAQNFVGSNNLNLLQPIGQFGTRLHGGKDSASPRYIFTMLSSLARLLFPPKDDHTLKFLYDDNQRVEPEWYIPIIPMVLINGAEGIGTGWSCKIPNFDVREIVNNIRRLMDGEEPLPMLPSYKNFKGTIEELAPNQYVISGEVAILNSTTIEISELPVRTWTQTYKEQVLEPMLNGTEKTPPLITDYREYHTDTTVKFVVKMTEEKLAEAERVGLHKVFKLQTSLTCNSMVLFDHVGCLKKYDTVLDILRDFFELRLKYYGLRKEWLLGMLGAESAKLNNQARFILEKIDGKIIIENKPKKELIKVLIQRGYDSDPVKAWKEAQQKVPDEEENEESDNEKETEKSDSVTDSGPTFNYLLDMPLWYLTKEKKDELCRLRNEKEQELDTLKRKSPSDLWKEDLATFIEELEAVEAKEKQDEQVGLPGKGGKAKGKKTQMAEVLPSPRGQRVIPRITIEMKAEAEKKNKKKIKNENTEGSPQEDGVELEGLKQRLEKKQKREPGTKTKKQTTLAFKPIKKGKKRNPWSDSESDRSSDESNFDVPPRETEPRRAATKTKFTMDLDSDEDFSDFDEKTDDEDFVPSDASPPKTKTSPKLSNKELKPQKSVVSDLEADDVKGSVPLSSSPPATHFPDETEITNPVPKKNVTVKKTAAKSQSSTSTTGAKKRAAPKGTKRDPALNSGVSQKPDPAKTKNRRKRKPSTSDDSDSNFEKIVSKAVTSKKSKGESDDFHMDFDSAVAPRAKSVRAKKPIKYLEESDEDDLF

In the case of `CCN(CC)CCNc1nc2ccccc2c2c(=O)c3cc(Cl)ccc3sc12` [Compound N8, 10-Chloro-6-((2-(diethylamino)ethyl)amino)-12H-thiochromeno[2,3-c]quinolin-12-one], the melting point is reported as 152 to 153 °C, the IC50 ([1]; five different concentrations, TopoGEN TG2005H, TG-2000H-1, read-out: IC50 value, TOP II mediated supercoiled DNA relaxation) is reported as about 1 µM and the “inhibitory effect in TOP II relaxation assay compared with VP-16” value ([1]; primary assay at 25 and/or 50 μM) is reported as “more potent inhibitory effects than the positive agent VP-16”.
With `O=c1c2ccc(Cl)cc2sc2c(Cl)nc3ccccc3c12` [Compound 3, 6,9-Dichloro-12H-thiochromeno[2,3-c]quinolin-12-one] the “Growth percent HOP-62” value [2] was 82.02%, the “Growth percent UACC-62” value [3] was 89.69% and the “Growth percent HCC-2998” value [4] was 123.28%. The “Growth percent TK-10” value [5] was 108.56%, the “Growth percent MDA-MB-486” value [6] was 98.57% and the “Growth percent HL-60(TB)” value [7] was 99.34%. For the same molecule, the “Growth percent IGROV1” value [8] was 96.06%, the “Growth percent SNB-19” value [9] was 107.89% and the “Growth percent HCT-15” value [10] was 102.28%. For the same molecule, the “Growth percent SR” value [11] was 89.02%, the “Growth percent CAKI-1” value [12] was 94.31% and the “Growth percent MDA-MB-231/ATCC” value [13] was 84.28%. For the same molecule, the “Growth percent T-47D” value [14] was 110.10%, the “Growth percent, Delta” value ([15]; delta over the cell panel) was 32.05% and the “Growth percent, Mean” value ([15]; mean over the cell panel) was 98.11%. For the same molecule, the “Growth percent, Range” value ([15]; range over the cell panel) was 57.22%, the “Growth percent OVCAR-3” value [16] was 111.27% and the “Growth percent LOX IMVI” value [17] was 90.53%. For the same molecule, the “Growth percent SK-OV-3” value [18] was 101.32%, the “Growth percent OVCAR-8” value [19] was 101.62% and the “Growth percent RPMI-8226” value [20] was 100.19%. The melting point was 259 to 261 °C, the “Growth percent SF-268” value [21] was 109.60% and the “Growth percent CCRF-CEM” value [22] was 93.12%. The “Growth percent NCI-H23” value [23] was 85.12%, the “Growth percent KM12” value [24] was 111.27% and the “Growth percent NCI-H460” value [25] was 103.14%. The “Growth percent SF-295” value [26] was 90.26%, the “Growth percent K-562” value [27] was 101.04% and the “Growth percent SF-539” value [28] was 89.02%. The “Growth percent U251” value [29] was 101.71%, the “Growth percent SW-620” value [30] was 99.06% and the “Growth percent HCT-116” value [31] was 102.27%. For the same molecule, the “Growth percent HT29” value [32] was 99.73%, the “Growth percent MCF7 (Table 2: MCF)” value [33] was 82.58% and the “Growth percent NCI-H522” value [34] was 96.81%. The “Growth percent NCI/ADR-RES” value [35] was 102.80%, the “Growth percent ACHN” value [36] was 86.84% and the “Growth percent COLO 205” value [37] was 112.15%. The “Growth percent SK-MEL-28” value [38] was 101.80%, the “Growth percent SK-MEL-2” value [39] was 95.54% and the “Growth percent SN12C” value [40] was 95.92%. The “Growth percent OVCAR-4” value [41] was 87.91%, the “Growth percent BT-549” value [42] was 110.01% and the “Growth percent 786-0” value [43] was 105.25%. The “Growth percent MALME-3M” value [44] was 95.87%, the “Growth percent RXF 393” value [45] was 102.55% and the “Growth percent MDA-MB-435” value [46] was 100.64%. The “Growth percent OVCAR-5” value [47] was 100.07%, the “Growth percent A549/ATCC” value [48] was 104.74% and the “Growth percent HS 578T” value [49] was 95.14%. For the same molecule, the “Growth percent HOP-92” value [50] was 90.83%, the “Growth percent DU-145” value [51] was 114.27% and the “Growth percent NCI-H226” value [52] was 83.41%. For the same molecule, the “Growth percent UO-31” value [53] was 66.06%, the “Growth percent PC-3” value [54] was 91.59% and the “Growth percent SNB-75” value [55] was 77.88%. The “Growth percent MOLT-4” value [56] was 98.04%, the “Growth percent UACC-257” value [57] was 104.47% and the “Growth percent SK-MEL-5” value [58] was 97.42%. The “Growth percent A498” value [59] was 106.06% and the “Growth percent M14” value [60] was 106.18%.
